Assay results: US20140163026A1, “8-ETHYL-6-(ARYL)PYRIDO[2,3-D]PYRIMIDIN-7(8H)-ONES FOR THE TREATMENT OF NERVOUS SYSTEM DISORDERS AND CANCER” (Afraxis Holdings, Inc., priority 2011, published 2014)

Columns and labels:
Format in all cases: biochemical
PAK1 = PAK1 (Homo sapiens, UniProt Q13153); assay: In vitro PAK inhibition assay (SelectScreen, Ser/Thr 19 peptide)
Description: (§1) Compounds are screened in 1% DMSO (final) in the well. For 10 point titrations, 3-fold serial dilutions are conducted.
(§2) All Peptide/Kinase Mixtures are diluted to a 2× working concentration in the appropriate Kinase Buffer
The 2×PAK1/Ser/Thr 19 mixture is prepared in 50 mM HEPES pH 7.5, 0.01% BRIJ-35, 10 mM MgCl2, 1 mM EGTA.
(§3) This control yields 100% cleaved peptide in the Development Reaction.
(§4) The 100% Phosphorylation Control, which consists of a synthetically phosphorylated peptide of the same sequence as the peptide substrate, is designed to allow for the calculation of percent phosphorylation.
(§5) This control is designed to produce a 10-50%* phosphorylated peptide in the Kinase Reaction.
(§6) A known inhibitor control standard curve, 10 point titration, is run for each individual kinase on the same plate as the kinase to ensure the kinase is inhibited within an expected IC50 range previously determined.
(§7) Add the following solutions to a well in a 384-well plate: • 2.5 μL of 4× Test Compound OR (100 nL 100× Test Compound plus 2.4 μL kinase buffer) • 5 μL of 2× Peptide/Kinase (PAK) Mixture • 2.5 μL of 4×ATP Solution • 2. Shake the plate for 30-seconds • 3. Incubate the PAK Kinase Reaction at room temperature for 60-minutes • 4. Add 5 μL of Development Reagent Solution to each well • 5. Shake the plate for 30-seconds • 6. Incubate the Development Reaction for 60-minutes • 7. Determine the fluorescence using a fluorescence plate reader • 8. Analyze the fluorescence data
(§8) SelectScreen® Kinase Profiling Service uses XLfit from IDBS.
(§9) The representative IC50 value with a known inhibitor for each kinase was determined at the ATP bin nearest to the ATP Km app.

PAK3 = PAK3 (Homo sapiens, UniProt O75914); assay: In vitro PAK inhibition assay (SelectScreen, Ser/Thr 20 peptide)
Description: as §1, §2
The 2×PAK3/Ser/Thr 20 mixture is prepared in 50 mM HEPES pH 7.5, 0.01% BRIJ-35, 10 mM MgCl2, 1 mM EGTA.
as §3, §4, §5, §6, §7, §8, §9

PAK4 = PAK4 (Homo sapiens, UniProt O96013); assay: as above
Description: as §1, §2
The 2×PAK4/Ser/Thr 20 mixture is prepared in 50 mM HEPES pH 7.5, 0.01% BRIJ-35, 10 mM MgCl2, 1 mM EGTA. The final 10 μL Kinase Reaction consists of 0.1-0.75 ng PAK4 and 2 μM Ser/Thr 20 in 50 mM HEPES pH 7.5, 0.01% BRIJ-35, 10 mM MgCl2, 1 mM EGTA. After the 1 hour Kinase Reaction incubation, 5 μL of a 1:256 dilution of Development Reagent A is added.
as §3, §4
The minimum Emission Ratio in a screen is established by the 0% Inhibition Control, which contains active kinase. This control is designed to produce a 10-50%* phosphorylated peptide in the Kinase Reaction.
as §6
as §7, with “Bar-coded Corning, low volume NBS, black 384-well plate (Corning Cat. #3676) • 1. Add the” for “Add the”
SelectScreen® Kinase Profiling Service uses XLfit from IDBS. The dose response curve is curve fit to model number 205 (sigmoidal dose-response model).
The table below provides specifications and data around each kinase. The representative IC50 value with a known inhibitor for each kinase was determined at the ATP bin nearest to the ATP Km app.

PAK2 (PAK65) = PAK2 (PAK65) (Homo sapiens, UniProt Q13177); assay: as above
Description: as §1, §2
The 2×PAK2 (PAK65)/Ser/Thr 20 mixture is prepared in 50 mM HEPES pH 7.5, 0.01% BRIJ-35, 10 mM MgCl2, 1 mM EGTA. The final 10 μL Kinase Reaction consists of 0.29-6 ng PAK2 (PAK65) and 2 μM Ser/Thr 20 in 50 mM HEPES pH 7.5, 0.01% BRIJ-35, 10 mM MgCl2, 1 mM EGTA.
as §3, §4, §5, §6, §7, §8, §9

Sequence of PAK1 (Q13153 whole entry): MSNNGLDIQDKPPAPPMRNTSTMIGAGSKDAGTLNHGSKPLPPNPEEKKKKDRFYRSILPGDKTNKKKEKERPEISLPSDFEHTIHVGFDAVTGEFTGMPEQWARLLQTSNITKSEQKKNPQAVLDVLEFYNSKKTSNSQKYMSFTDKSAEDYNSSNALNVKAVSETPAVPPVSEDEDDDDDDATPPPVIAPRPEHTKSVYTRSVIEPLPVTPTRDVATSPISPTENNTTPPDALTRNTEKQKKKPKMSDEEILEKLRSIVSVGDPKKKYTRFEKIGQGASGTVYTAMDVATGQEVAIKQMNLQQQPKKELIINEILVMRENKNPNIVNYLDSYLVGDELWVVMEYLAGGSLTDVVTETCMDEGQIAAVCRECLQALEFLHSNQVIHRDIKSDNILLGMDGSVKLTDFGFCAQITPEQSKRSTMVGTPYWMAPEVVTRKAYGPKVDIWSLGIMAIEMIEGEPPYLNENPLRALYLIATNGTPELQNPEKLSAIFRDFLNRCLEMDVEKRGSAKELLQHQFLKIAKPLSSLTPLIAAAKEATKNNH
Sequence of PAK2 (PAK65) (Q13177 whole entry): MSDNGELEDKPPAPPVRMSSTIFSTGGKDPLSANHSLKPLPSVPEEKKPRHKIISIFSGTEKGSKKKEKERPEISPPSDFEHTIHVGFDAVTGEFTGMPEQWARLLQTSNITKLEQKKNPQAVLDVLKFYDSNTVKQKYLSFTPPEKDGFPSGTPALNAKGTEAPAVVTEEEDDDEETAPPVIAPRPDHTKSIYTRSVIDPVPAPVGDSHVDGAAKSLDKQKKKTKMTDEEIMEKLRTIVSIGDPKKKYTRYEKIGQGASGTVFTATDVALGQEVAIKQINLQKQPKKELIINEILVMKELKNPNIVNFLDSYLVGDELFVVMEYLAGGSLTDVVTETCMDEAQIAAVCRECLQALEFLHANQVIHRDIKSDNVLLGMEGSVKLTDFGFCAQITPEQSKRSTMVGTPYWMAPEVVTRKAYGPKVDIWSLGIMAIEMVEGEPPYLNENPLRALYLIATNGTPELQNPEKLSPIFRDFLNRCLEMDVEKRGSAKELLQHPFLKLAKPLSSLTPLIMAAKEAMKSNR
Sequence of PAK3 (O75914 whole entry): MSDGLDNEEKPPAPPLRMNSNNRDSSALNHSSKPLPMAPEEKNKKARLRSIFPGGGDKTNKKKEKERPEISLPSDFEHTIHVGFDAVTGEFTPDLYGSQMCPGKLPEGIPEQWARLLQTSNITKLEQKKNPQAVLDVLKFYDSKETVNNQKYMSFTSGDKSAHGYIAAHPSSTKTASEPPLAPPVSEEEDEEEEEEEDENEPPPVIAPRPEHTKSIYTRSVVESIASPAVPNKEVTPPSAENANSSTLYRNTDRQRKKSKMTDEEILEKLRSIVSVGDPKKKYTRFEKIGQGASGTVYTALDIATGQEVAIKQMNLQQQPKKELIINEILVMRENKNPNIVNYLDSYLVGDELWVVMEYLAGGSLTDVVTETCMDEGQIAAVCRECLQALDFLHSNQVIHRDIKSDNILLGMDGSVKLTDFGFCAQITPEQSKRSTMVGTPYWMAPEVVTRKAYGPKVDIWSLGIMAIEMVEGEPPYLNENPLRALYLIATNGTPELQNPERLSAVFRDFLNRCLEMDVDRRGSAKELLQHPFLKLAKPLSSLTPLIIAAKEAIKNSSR
Sequence of PAK4 (O96013 whole entry): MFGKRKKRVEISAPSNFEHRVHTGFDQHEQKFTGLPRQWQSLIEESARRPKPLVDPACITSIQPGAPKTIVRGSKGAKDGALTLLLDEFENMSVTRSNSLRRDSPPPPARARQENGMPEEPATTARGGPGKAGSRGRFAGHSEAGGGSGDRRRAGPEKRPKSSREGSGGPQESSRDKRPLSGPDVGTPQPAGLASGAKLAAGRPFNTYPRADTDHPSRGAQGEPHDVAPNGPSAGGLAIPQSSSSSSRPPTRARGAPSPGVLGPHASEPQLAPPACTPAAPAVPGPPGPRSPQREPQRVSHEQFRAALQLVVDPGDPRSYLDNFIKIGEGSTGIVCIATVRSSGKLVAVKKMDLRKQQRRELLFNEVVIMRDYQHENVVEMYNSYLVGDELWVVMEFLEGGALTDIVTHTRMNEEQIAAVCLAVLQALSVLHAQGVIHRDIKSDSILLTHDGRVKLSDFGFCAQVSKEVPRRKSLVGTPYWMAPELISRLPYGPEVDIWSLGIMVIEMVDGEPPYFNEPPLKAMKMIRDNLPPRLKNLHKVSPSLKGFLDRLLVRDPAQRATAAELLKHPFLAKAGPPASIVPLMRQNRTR

SMILES	IC50 (PAK1) [nM]	IC50 (PAK3) [nM]	IC50 (PAK4) [nM]	IC50 (PAK2 (PAK65)) [nM]
CCn1c(=O)c(-c2ccc(-c3cn[nH]c3)cc2)cc2cnc(Nc3ccc(N4CCN(C)CC4)cc3)nc21	> 5000	> 5000	≥ 5000	500 to 5000
CCn1c(=O)c(-c2ccc(-c3ccn[nH]3)cc2)cc2cnc(Nc3ccc(N4CCN(C)CC4)cc3)nc21	500 to 5000	500 to 5000	≥ 5000	50 to 500
CCn1c(=O)c(-c2nc(C)sc2C)cc2cnc(Nc3ccc(N4CCN(C)CC4)cc3)nc21	500 to 5000	> 5000	≥ 5000	500 to 5000
CCn1c(=O)c(-c2sc(C)nc2C)cc2cnc(Nc3ccc(N4CCN(C)CC4)cc3)nc21	> 5000	> 5000	≥ 5000	> 5000
CCn1c(=O)c(-c2ccc(-c3noc(C(F)(F)F)n3)cc2Cl)cc2cnc(Nc3ccc(N4CCN(C(C)C)CC4)cc3)nc21	< 50	< 50	≥ 5000	< 50
CCn1c(=O)c(-c2ccc(-c3noc(C)n3)cc2Cl)cc2cnc(Nc3ccc(N4CCN(C(C)C)CC4)cc3)nc21	< 50	< 50	500 to 5000	< 50
CCn1c(=O)c(-c2ccc(-c3noc(C)n3)cc2Cl)cc2cnc(Nc3ccc(N4CCN(C)CC4)c(F)c3)nc21	< 50	< 50	≥ 5000	< 50
CCn1c(=O)c(-c2ccc(-c3scnc3C)cc2Cl)cc2cnc(Nc3ccc(N4CCNCC4)cc3)nc21	< 50	< 50	500 to 5000	< 50
CCN1CCN(c2ccc(Nc3ncc4cc(-c5ccc(-c6scnc6C)cc5Cl)c(=O)n(CC)c4n3)cc2)CC1	< 50	50 to 500	≥ 5000	< 50
CCn1c(=O)c(-c2ccc(-c3noc(C)n3)cc2)cc2cnc(Nc3ccc(N4CCN(C)CC4)cc3)nc21	< 50	50 to 500	≥ 5000	50 to 500
CCn1c(=O)c(-c2ccc(-c3cccnc3)cc2Cl)cc2cnc(Nc3ccc(C4CCNCC4)c(F)c3)nc21	< 50	< 50	500 to 5000	< 50
CCn1c(=O)c(-c2ccc(-c3ccc(C)nc3)cc2Cl)cc2cnc(Nc3ccc(N4CCN(C)CC4)cc3)nc21	< 50	50 to 500	500 to 5000	< 50
CCn1c(=O)c(-c2ccc(-c3cccnc3C)cc2Cl)cc2cnc(Nc3ccc(N4CCN(C)CC4)cc3)nc21	< 50	< 50	≥ 5000	< 50
CCn1c(=O)c(-c2ccc(-c3ccc(C(=O)NC)nc3)cc2Cl)cc2cnc(Nc3ccc(N4CCN(C)CC4)cc3)nc21	> 5000	> 5000	≥ 5000	50 to 500
CCn1c(=O)c(-c2ccc(-c3ccnc(C)c3)cc2Cl)cc2cnc(Nc3ccc(N4CCN(C)CC4)cc3)nc21	< 50	< 50	≥ 5000	< 50
CCn1c(=O)c(-c2ccc(-c3cccnc3)cc2Cl)cc2cnc(Nc3ccc(C4CCNC4)cc3)nc21 (centres unmarked)	< 50	< 50	500 to 5000	< 50
CCn1c(=O)c(-c2ccc(-c3noc(C)n3)cc2Cl)cc2cnc(Nc3ccc(C4CCNC4)cc3)nc21 (centres unmarked)	< 50	< 50	500 to 5000	< 50
CCn1c(=O)c(-c2ccc(-c3noc(C)n3)cc2Cl)cc2cnc(Nc3ccc(C4CCNC4)c(F)c3)nc21 (centres unmarked)	< 50	< 50	500 to 5000	< 50

SMILES	IC50 (PAK1) [nM]	IC50 (PAK3) [nM]	IC50 (PAK4) [nM]	IC50 (PAK2 (PAK65)) [nM]
CCn1c(=O)c(-c2ccc(-c3noc(C)n3)cc2Cl)cc2cnc(Nc3ccc(N4CCNCC4)c(F)c3)nc21	< 50	< 50	50 to 500	< 50
CCn1c(=O)c(-c2ccc(-c3ccnc(C(=O)NC)c3)cc2Cl)cc2cnc(Nc3ccc(N4CCN(C)CC4)cc3)nc21	< 50	50 to 500	≥ 5000	< 50
CCn1c(=O)c(-c2ccc(-c3ccnc(C(=O)NC)c3)cc2Cl)cc2cnc(Nc3ccc(C4CCN(C)CC4)cc3)nc21	< 50	50 to 500	≥ 5000	50 to 500
CCn1c(=O)c(-c2ccc(-c3cccnc3)cc2Cl)cc2cnc(Nc3ccc(C4CCN(C)CC4)cc3)nc21	< 50	< 50	500 to 5000	< 50
CCN1CCC(c2ccc(Nc3ncc4cc(-c5ccc(-c6cccnc6)cc5Cl)c(=O)n(CC)c4n3)cc2)CC1	< 50	< 50	500 to 5000	< 50
CCN1CCC(c2ccc(Nc3ncc4cc(-c5ccc(-c6cnc(C)s6)cc5Cl)c(=O)n(CC)c4n3)cc2)CC1	< 50	50 to 500	500 to 5000	< 50
CCn1c(=O)c(-c2ccc(-c3ccc(C(=O)NC)nc3)cc2Cl)cc2cnc(Nc3ccc(C4CCN(C)CC4)cc3)nc21	500 to 5000	> 5000	≥ 5000	50 to 500
CCn1c(=O)c(-c2ccc(-c3ccc(C)nc3)cc2Cl)cc2cnc(Nc3ccc(C4CCN(C)CC4)cc3)nc21	< 50	50 to 500	500 to 5000	< 50
CCn1c(=O)c(-c2ccc(-c3cccnc3C)cc2Cl)cc2cnc(Nc3ccc(C4CCN(C)CC4)cc3)nc21	< 50	< 50	≥ 5000	< 50
CCn1c(=O)c(-c2ccc(-c3cccnc3)cc2Cl)cc2cnc(Nc3ccccc3)nc21	50 to 500	500 to 5000	≥ 5000	500 to 5000
CCn1c(=O)c(-c2ccc(-c3ccnc(C)c3)cc2Cl)cc2cnc(Nc3ccc(C4CCN(C)CC4)cc3)nc21	> 5000	< 50	500 to 5000	< 50
CCN1CCC(c2ccc(Nc3ncc4cc(-c5ccc(-c6cnc(C)s6)cc5Cl)c(=O)n(CC)c4n3)cc2F)CC1	< 50	< 50	500 to 5000	< 50
CCn1c(=O)c(-c2ccc(-c3cnc(C)s3)cc2Cl)cc2cnc(Nc3ccc(C4CCNC4)cc3)nc21 (centres unmarked)	< 50	< 50	500 to 5000	< 50
CCn1c(=O)c(-c2ccc(-c3noc(C)n3)cc2Cl)cc2cnc(Nc3ccc(C4CCNCC4)c(F)c3)nc21	< 50	< 50	500 to 5000	< 50
CCn1c(=O)c(-c2ccc(-c3cnc(C)s3)cc2Cl)cc2cnc(Nc3ccc(C4CCNCC4)c(F)c3)nc21	< 50	< 50	500 to 5000	< 50
CCn1c(=O)c(-c2ccc(-c3ccnc(C(=O)NC)c3)cc2Cl)cc2cnc(Nc3ccc(C4CCNCC4)cc3)nc21	50 to 500	50 to 500	≥ 5000	50 to 500
CCN1CCC(c2ccc(Nc3ncc4cc(-c5ccc(-c6ccnc(C)c6)cc5Cl)c(=O)n(CC)c4n3)cc2)CC1	< 50	50 to 500	≥ 5000	< 50
